According to article PMC8907714, “Antimicrobial property of Pichia pastoris‐derived natto peptide against foodborne bacteria and its preservative potential to maintain pork quality during refrigerated storage” (Food Science & Nutrition, 2022):

Legend:
[1] = test system: total bacteria, Staphylococcus spp., Escherichia spp., and Pseudomonas spp.; assay: Microbial growth in pork during refrigerated storage, colony count; conditions: pork soaked 20 min, natto peptide 30, 60, 90 μg/ml, nisin 50 μg/ml, butyl paraben 100 μg/ml, 4°C, 8‐day storage
Method: Fresh‐pork legs were bought from a local butcher (Binzhou, China) 24 h postmortem. The connective tissue and fat of the pork were removed before cutting into even slices (5 ± 0.1 g). Afterwards, the slices were soaked in 0, 30, 60, and 90 μg/ml of natto peptide for 20 min. Then, the slices were drained and placed in sterilized polyvinyl chloride trays, sealed using a polyethylene film, and stored at 4°C in a refrigerator for 8 days. Meanwhile, 50 μg/ml of nisin and 100 μg/ml of butyl paraben were used as positive controls to analyze the aseptic effects of natto peptide, including microbial growth, TVB‐N, lipid oxidation, pH, drip loss, and sensory quality during storage.
The microbial growth of pork was determined by colony count, as described previously (Meng et al., [2021]). In brief, after the pork sample (5 g) was homogenized with 0.9% sterilized saline buffer (25 ml), 100 μl of the 10× diluent was spread on plate‐count agar, mannitol‐salt agar, violet red bile agar, and centrimide (CN) agar, and incubated at a suitable temperature for 48 h. All experiments were performed three times.

E. coli O157 = assay: Time‐killing curve; format: cell-based, Escherichia coli; conditions: gentamicin positive control, concentration not given
Method: Time‐killing curves were obtained as described previously to evaluate the bactericidal rates of natto peptide (Dong & Sun, [2021]). Concisely, the natto peptide at final concentrations of 1×, 2×, and 4× MICs was incubated with E. coli O157, which was cultured to midlog phase. Then, the culture samples were harvested at different time intervals for colony counting. PBS buffer and gentamicin were used as negative and positive controls. All the experiments were performed in triplicate.

Compound	bacterial growth in pork compared with control [1]	time until bacteria were completely killed (E. coli O157) [h]
CCCCOC(=O)c1ccc(O)cc1 [Butyl paraben]	effective inhibition function	
CNC(C)C1CCC(N)C(OC2C(N)CC(N)C(OC3OCC(C)(O)C(NC)C3O)C2O)O1 (stereo not drawn) [gentamicin]		1.5
Nisin	moderate inhibitory effect	
